One assay relates to HEK293. Nature of the assay: cells. It counts as functional. The note with it: Homo sapiens, ATCC CRL1573, HEK293; ASSAY_TEST Inhibition of Cell Viability; detection method Resazurin; Fluorescence (ex560/em590); MEDIA DMEM with 10% FBS; plate type 384well; TC; CORNING #3712; time 18 hr.
The subject of a further assay is Candida albicans. Nature of the assay: microbe, parasite or virus in culture. The note with it: ATCC 90028, ASSAY_TEST Inhibition of Fungal Growth, detection method Absorption (OD530), plate type 384well, NBS, CORNING #3640.
A further assay concerns Escherichia coli. Nature of the assay: microbe, parasite or virus in culture. The conditions noted are these: ATCC 25922, 18 h, ASSAY_TEST Inhibition of Bacterial Growth, detection method Absorption (OD600), MEDIA CAMHB, plate type 384well, NBS, CORNING #3640.
The test system of the next assay is Acinetobacter baumannii. Put plainly: microbe, parasite or virus in culture. The note with it: ATCC 19606, 18 h, ASSAY_TEST Inhibition of Bacterial Growth, detection method Absorption (OD600), MEDIA CAMHB, plate type 384well, NBS, CORNING #3640.
In a further assay the test system is Klebsiella pneumoniae. Put plainly: microbe, parasite or virus in culture. The conditions noted are these: ATCC 700603, 18 h, ASSAY_TEST Inhibition of Bacterial Growth, detection method Absorption (OD600), MEDIA CAMHB, plate type 384well, NBS, CORNING #3640.
A further assay concerns Staphylococcus aureus. Nature of the assay: microbe, parasite or virus in culture. The conditions noted are these: ATCC 43300, 18 h, ASSAY_TEST Inhibition of Bacterial Growth, detection method Absorption (OD600), MEDIA CAMHB, plate type 384well, NBS, CORNING #3640.
A further assay deals with Pseudomonas aeruginosa. Nature of the assay: microbe, parasite or virus in culture. The conditions noted are these: ATCC 27853, 18 h, ASSAY_TEST Inhibition of Bacterial Growth, detection method Absorption (OD600), MEDIA CAMHB, plate type 384well, NBS, CORNING #3640.

Converted amounts (≈) assume the structure as drawn.

For orientation: CC50 means the concentration that lowers cell viability or growth by half. Higher therefore signals better tolerance by the cells.

Description for Acinetobacter baumannii: Antibacterial activity against Acinetobacter baumannii ATCC 19606 (CO-ADD:GN_034); MIC in CAMBH media using NBS plates, by OD600
Description for Candida albicans: Antifungal activity against Candida albicans ATCC 90028 (CO-ADD:FG_001); MIC in YNB media using NBS plates, by OD630
Description for Cryptococcus neoformans: Antifungal activity against Cryptococcus neoformans H99 ATCC 208821 (CO-ADD:FG_002); MIC in YNB media using NBS plates, by Resazurin OD(600-570)
Description for Escherichia coli: Antibacterial activity against Escherichia coli ATCC 25922 (CO-ADD:GN_001); MIC in CAMBH media using NBS plates, by OD(600)
Description for Klebsiella pneumoniae: Antibacterial activity against Klebsiella pneumoniae MDR ATCC 70063 (CO-ADD:GN_003); MIC in CAMBH media using NBS plates, by OD(600)
Description for Pseudomonas aeruginosa: Antibacterial activity against Pseudomonas aeruginosa ATCC 27853 (CO-ADD:GN_042); MIC in CAMBH media using NBS plates, by OD(600)
Description for Staphylococcus aureus: Antibacterial activity against Staphylococcus aureus MRSA ATCC 43300 (CO-ADD:GP_020); MIC in CAMBH media, using NBS plates, by OD(600)

As for `N#Cc1cn(C2OC(CO)C(O)C2O)c2ncnc(N)c12` (stereo not drawn), in the assay with HEK293, the CC50 was above 10 µM. Moreover, the MIC in the assay with Candida albicans is 0.312 µM (≈ 0.091 µg/mL); in the assay on Escherichia coli, above 10 µM; against Acinetobacter baumannii, above 10 µM; in the assay with Klebsiella pneumoniae, above 10 µM; against Staphylococcus aureus, above 10 µM; against Pseudomonas aeruginosa, above 10 µM. The compound further displayed an MIC in the assay with Cryptococcus neoformans above 10 µM.
For `O=c1ccc2nc3ccc(O)cc3oc-2c1`, the CC50 in the assay with HEK293 was above 10 µM. Also, the MIC in the assay with Candida albicans, in the assay with Escherichia coli, against Acinetobacter baumannii, with Klebsiella pneumoniae, in the assay on Staphylococcus aureus and in the assay with Pseudomonas aeruginosa was above 10 µM throughout. This compound returned an MIC in the assay with Cryptococcus neoformans above 10 µM.
On to `COc1cccc2c1C(=O)c1c(O)c3c(c(O)c1C2=O)C[C@@](O)(C(C)=O)C[C@@H]3OC1CC(N)C(O)C(C)O1` (stereo partly drawn), for which, in the assay on HEK293, the CC50 was 0.613 µM. Further, the MIC in the assay on Candida albicans is above 10 µM; in the assay with Escherichia coli, above 10 µM; against Acinetobacter baumannii it was above 10 µM; in the assay with Klebsiella pneumoniae, above 10 µM; against Staphylococcus aureus, 5 µM (≈ 2.64 µg/mL); in the assay with Pseudomonas aeruginosa, above 10 µM. Moreover, the MIC against Cryptococcus neoformans is above 10 µM.
`CC1Oc2cc3c(-c4c(O)cc(O)c5c(O)c6c(cc45)OC(C)C(C)C6=O)c(O)cc(O)c3c(O)c2C(=O)C1C` (stereo not drawn) returned a CC50 in the assay with HEK293 of 5.78 µM. Further, the MIC in the assay with Candida albicans is above 10 µM; in the assay on Escherichia coli, above 10 µM; against Acinetobacter baumannii, above 10 µM; with Klebsiella pneumoniae, above 10 µM; in the assay with Staphylococcus aureus, 5 µM (≈ 2.73 µg/mL); with Pseudomonas aeruginosa it was above 10 µM. Besides, in the assay on Cryptococcus neoformans, the MIC was above 10 µM.
Consider `COC1=C2C[C@@H](C)C[C@@H](OC)[C@@H](O)[C@H](C)/C=C(\C)[C@@H](OC(N)=O)[C@H](OC)/C=C\C=C(/C)C(=O)NC(=CC1=O)C2=O`, for which the CC50 in the assay on HEK293 was above 10 µM. The MIC with Candida albicans, with Escherichia coli, against Acinetobacter baumannii, against Klebsiella pneumoniae, with Staphylococcus aureus and with Pseudomonas aeruginosa was above 10 µM each time. For the same compound, the MIC against Cryptococcus neoformans was above 10 µM.
For the compound `CC[C@H](C)c1occ2c(O)c(C(=O)O)c(=O)cc-2c1C`, the CC50 in the assay with HEK293 was above 10 µM. The MIC with Candida albicans, in the assay with Escherichia coli, in the assay with Acinetobacter baumannii, against Klebsiella pneumoniae, in the assay on Staphylococcus aureus and against Pseudomonas aeruginosa was above 10 µM throughout. In the assay on Cryptococcus neoformans, the MIC was above 10 µM.
As to `C=C(NC(=O)C(=C)NC(=O)c1csc(C2=NC3c4csc(n4)C4NC(=O)c5csc(n5)C(C(C)(O)C(C)O)NC(=O)C5CSC(=N5)/C(=C/C)NC(=O)C(C(C)O)NC(=O)c5csc(n5)C3(CC2)NC(=O)C(C)NC(=O)C(=C)NC(=O)C(=C)NC(=O)C(C(C)C)NC2C=Cc3c(C(C)O)cc(nc3C2O)C(=O)OC4C)n1)C(N)=O` (stereo not drawn), in the assay with HEK293, the CC50 was above 10 µM. The MIC in the assay on Candida albicans was above 10 µM; in the assay on Escherichia coli, above 10 µM; with Acinetobacter baumannii it was above 10 µM; in the assay with Klebsiella pneumoniae it was above 10 µM; in the assay on Staphylococcus aureus, at most 0.0781 µM; against Pseudomonas aeruginosa, above 10 µM. Besides, the MIC against Cryptococcus neoformans was above 10 µM.
The compound `COc1cc(C)cc2c(-c3c(O)cc(O)c4c3C[C@H](C)N[C@H]4C)cc(-c3cc(-c4c(O)cc(O)c5c4C[C@H](C)N[C@H]5C)c4cc(C)cc(OC)c4c3O)c(O)c12` displayed a CC50 in the assay on HEK293 above 10 µM. In addition, the MIC against Candida albicans, against Escherichia coli, with Acinetobacter baumannii, against Klebsiella pneumoniae, in the assay with Staphylococcus aureus and against Pseudomonas aeruginosa was above 10 µM each time. In the assay on Cryptococcus neoformans, this compound registered an MIC above 10 µM.
In the case of `CC1COC2C3=C(C(=O)C=CC3=O)C3OC(=O)C4CC5CCC1C5C2C43` (stereo not drawn), the CC50 with HEK293 came to 1.18 µM. That is a single-digit micromolar value.
In the assay on HEK293, `CC1/C=C/C=C/CC/C=C/C=C/C=C/C=C/C(OC2OC(C)C(O)C(N)C2O)CC2OC(CC(O)C(O)CCC(O)CC(O)CC(O)CC(=O)OC(C)C(C)C1O)CC(O)C2C(=O)O` (stereo not drawn) came in with a CC50 above 10 µM. The MIC in the assay with Candida albicans was 5 µM (≈ 4.55 µg/mL); with Escherichia coli, above 10 µM; with Acinetobacter baumannii, above 10 µM; in the assay on Klebsiella pneumoniae, above 10 µM; in the assay on Staphylococcus aureus, above 10 µM; against Pseudomonas aeruginosa, above 10 µM. Also, the MIC with Cryptococcus neoformans was 5 µM (≈ 4.55 µg/mL).
As for `CC(=O)C(=O)NC1/C=C(C)\C=C/C(O)C/C=C(C)\C=C/C(O)CC2OC(=O)C1(C)C(=O)C2C` (stereo not drawn), the CC50 in the assay on HEK293 was above 10 µM. For the same compound, the MIC was above 10 µM in the assay on Candida albicans; above 10 µM with Escherichia coli; above 10 µM in the assay on Acinetobacter baumannii; above 10 µM with Klebsiella pneumoniae; 10 µM (≈ 4.6 µg/mL) against Staphylococcus aureus; above 10 µM in the assay with Pseudomonas aeruginosa. Also, the MIC with Cryptococcus neoformans is above 10 µM.
In the assay with HEK293, `CO[C@H](/C(C)=C/C=C/C(C)=C/c1coc(C)n1)[C@H](C)[C@H]1C[C@@H](O)[C@@]2(C)O[C@H]2/C=C/[C@@H](C)[C@@H]2C[C@@H](CC(=O)O2)C[C@H]2O[C@@H]2C(=O)O1` showed a CC50 above 10 µM. The MIC in the assay with Candida albicans, in the assay with Escherichia coli, against Acinetobacter baumannii, against Klebsiella pneumoniae, in the assay with Staphylococcus aureus and in the assay on Pseudomonas aeruginosa was above 10 µM throughout. Further, the MIC with Cryptococcus neoformans is 1.25 µM (≈ 0.782 µg/mL).
In turn, `COc1cc2oc3cc(=O)cc4oc(-c5ccccc5)cc(c2c2c1CCC(c1ccccc1)O2)c43` (stereo not drawn) showed a CC50 with HEK293 above 10 µM. Also, the MIC against Candida albicans, against Escherichia coli, against Acinetobacter baumannii, with Klebsiella pneumoniae, against Staphylococcus aureus and in the assay with Pseudomonas aeruginosa was above 10 µM in each case. For the same compound, the MIC against Cryptococcus neoformans is above 10 µM.
The compound `COC1CC(CC2CCC(C)C(C(C)C(=O)O)O2)OC2(OC(C)(C3CCC(C)(C4OC(C5OC(O)(CO)C(C)CC5C)CC4C)O3)CC2C)C1C` (stereo not drawn) yielded a CC50 in the assay on HEK293 above 10 µM. Also, the MIC against Candida albicans was 10 µM (≈ 7.25 µg/mL); against Escherichia coli, above 10 µM; with Acinetobacter baumannii, above 10 µM; with Klebsiella pneumoniae, above 10 µM; with Staphylococcus aureus, 0.156 µM (≈ 0.113 µg/mL); against Pseudomonas aeruginosa it was above 10 µM. Besides, the MIC in the assay with Cryptococcus neoformans is above 10 µM.
With `N#C[C@H](OC1OC(COC2OC(CO)C(O)C(O)C2O)C(O)C(O)C1O)c1ccccc1` (stereo partly drawn), the CC50 in the assay on HEK293 was above 10 µM. Besides, the MIC against Candida albicans, against Escherichia coli, in the assay on Acinetobacter baumannii, against Klebsiella pneumoniae, in the assay on Staphylococcus aureus and in the assay on Pseudomonas aeruginosa was above 10 µM each time. The compound further had an MIC against Cryptococcus neoformans above 10 µM.
In the assay on HEK293, `CSC1SCC2C(=O)N(C)C(C(C)C)C(=O)OCC(NC(=O)c3cnc4ccccc4n3)C(=O)NC(C)C(=O)N(C)C1C(=O)N(C)C(C(C)C)C(=O)OCC(NC(=O)c1cnc3ccccc3n1)C(=O)NC(C)C(=O)N2C` (stereo not drawn) showed a CC50 above 10 µM. The MIC against Candida albicans was above 10 µM; against Escherichia coli, 2.5 µM (≈ 2.75 µg/mL); in the assay with Acinetobacter baumannii, above 10 µM; in the assay on Klebsiella pneumoniae, above 10 µM; in the assay with Staphylococcus aureus it was at most 0.0781 µM; in the assay with Pseudomonas aeruginosa, 1.25 µM (≈ 1.38 µg/mL). The MIC with Cryptococcus neoformans was 2.5 µM (≈ 2.75 µg/mL).
Regarding `COC1/C=C/O[C@@]2(C)Oc3c(C)c(O)c4c(O)c(cc(O)c4c3C2=O)NC(=O)/C(C)=C\C=C\[C@H](C)C(O)[C@@H](C)[C@@H](O)[C@@H](C)[C@H](OC(C)=O)[C@@H]1C` (stereo partly drawn), in the assay with HEK293, the CC50 is above 10 µM. In addition, the MIC against Candida albicans is above 10 µM; with Escherichia coli it was above 10 µM; in the assay on Acinetobacter baumannii, above 10 µM; in the assay with Klebsiella pneumoniae it was above 10 µM; with Staphylococcus aureus, at most 0.0781 µM; in the assay with Pseudomonas aeruginosa, above 10 µM. In the assay with Cryptococcus neoformans, this compound registered an MIC above 10 µM.
For the compound `CC1OC(=O)C(C(C)C)NC(=O)C(C(C)C)OC(=O)C(C(C)C)NC(=O)C(C)OC(=O)C(C(C)C)NC(=O)C(C(C)C)OC(=O)C(C(C)C)NC(=O)C(C)OC(=O)C(C(C)C)NC(=O)C(C(C)C)OC(=O)C(C(C)C)NC1=O` (stereo not drawn), in the assay with HEK293, the CC50 is above 10 µM. The MIC was 0.625 µM (≈ 0.695 µg/mL) with Candida albicans; above 10 µM with Escherichia coli; above 10 µM in the assay with Acinetobacter baumannii; above 10 µM against Klebsiella pneumoniae; above 10 µM against Staphylococcus aureus; above 10 µM against Pseudomonas aeruginosa. For the same compound, the MIC in the assay with Cryptococcus neoformans was above 10 µM.
Turning to `CCC(C(=O)C(C)C(O)C(C)CCc1ccc(C)c(O)c1C(=O)O)C1OC(CC)(C2CCC(O)(CC)C(C)O2)CC1C` (stereo not drawn), the CC50 in the assay on HEK293 is above 10 µM. Besides, the MIC is above 10 µM against Candida albicans; above 10 µM in the assay on Escherichia coli; above 10 µM in the assay on Acinetobacter baumannii; above 10 µM against Klebsiella pneumoniae; 0.312 µM (≈ 0.185 µg/mL) in the assay with Staphylococcus aureus; above 10 µM in the assay with Pseudomonas aeruginosa. For the same compound, in the assay on Cryptococcus neoformans, the MIC is above 10 µM.
For the compound `C[C@H](N)C(=O)N[C@@H]1[C@H]2C(=C(O)C[C@@H](O)[C@@H]2O)C(=O)O[C@]1(C)C(Cl)Cl` [BACTOBOLIN], the CC50 in the assay on HEK293 was 0.396 µM. In addition, the MIC is above 10 µM in the assay on Candida albicans; 5 µM (≈ 1.92 µg/mL) in the assay on Escherichia coli; above 10 µM against Acinetobacter baumannii; above 10 µM in the assay on Klebsiella pneumoniae; 1.25 µM (≈ 0.479 µg/mL) in the assay on Staphylococcus aureus; above 10 µM against Pseudomonas aeruginosa. Moreover, in the assay on Cryptococcus neoformans, the MIC is above 10 µM.

The values above are taken from ChEMBL document CHEMBL4296183, “CO-ADD screening of NIH NCI Natural Product Set III” (2020).
